Data from US6492381B1, “Tricyclic carbamate compounds useful for inhibition of G-protein function and for treatment of proliferative diseases” (Schering Corp., priority 1993, dated 2002).
Read-outs that look alike come from different tables or passages of the source.

Tests used:
[1] = system: T24-BAG4 human bladder carcinoma cells expressing an activated H-ras gene; test: Cell Mat assay: inhibition of tumor cell growth; assay type: cell-based; conditions: for IC50: tIC50
Procedure: (§1) Normal human HEPM fibroblasts were planted in 3.5 cm dishes at a density of 5×10^4 cells/dish in 2 ml growth medium, and incubated for 3-5 d to achieve confluence. Medium was aspirated from each dish and the indicator tumor cells, T24-BAG4 human bladder carcinoma cells expressing an activated H-ras gene, were planted on top of the fibroblast monolayer at a density of 2×10^3cells/dish in 2 ml growth medium, and allowed to attach overnight. Compound-induced colony inhibition was assayed by addition of serial dilutions of compound directly to the growth medium 24 h after tumor cell planting, and incubating cells for an additional 14 d to allow colony formation. Assays were terminated by rinsing monolayers twice with phosphate-buffered saline (PBS), fixing the monolayers with a 1% glutaraldehyde solution in PBS, then visualizing tumor cells by staining with X-Gal (Price, J., et al., Lineage analysis in the vertebrate nervous system by retrovirus-mediated gene transfer, Proc. Natl. Acad. Sci.84, 156-160(1987)). […] Both IC50 values were obtained by determining the density of tumor cells and mat cells by visual inspection and enumeration of cells per colony and the number of colonies under the microscope. The therapeutic index of the compound was quantitatively expressed as the ratio of mIC50/tIC50, with values greater than one indicative of tumor target specificity.

[2] = target: T1, farnesyl protein transferase (FPT) (Rattus norvegicus, UniProt Q02293+Q04631); test: In vitro enzyme assay: inhibition of farnesyl protein transferase; assay type: biochemical
T1 construct: were partially purified from rat brain by ammonium sulfate fractionation followed by Q-Sepharose; from tissue; host or cells: rat brain
Procedure: (§2) 1. In vitro enzyme assays: Inhibition of farnesyl protein transferase and geranylgeranyl protein transferase.
Human farnesyl protein transferase was also expressed in E. coli, using cDNA clones encoding both the α and β subunits. […] Two forms of val^12-Ha-Ras protein were prepared as substrates for these enzymes, differing in their carboxy terminal sequence. One form terminated in cysteine-valine-leucine-serine (Ras-CVLS) the other in cystein-valine-leucine-leucine (Ras-CVLL). Ras-CVLS is a substrate for the farnesyl protein transferase while Ras-CVLL is a substrate for geranylgeranyl protein transferase I. The cDNAs encoding these proteins were constructed so that the proteins contain an amino-terminal extension of 6 histidine residues. Both proteins were expressed in Escherichia coli and purified using metal chelate affinity chromatography. The radiolabelled isoprenyl pyrophosphate substrates, [^3H]farnesyl pyrophosphate and [^3H]geranylgeranyl pyrophosphate, were purchased from DuPont/New England Nuclear.
The reaction was allowed to proceed for 30 minutes at room temperature and then stopped with 0.5 ml of 4% sodium dodecyl sulfate (SDS) followed by 0.5 ml of cold 30% trichloracetic acid (TCA). Samples were allowed to sit on ice for 45 minutes and precipitated Ras protein was then collected on GF/C filter paper mats using a Brandel cell harvester. […] Percent inhibition was calculated relative to the DMSO vehicle control.

[3] = system: Ras-CVLS processing in COS monkey kidney cells; test: Cell-based assay: Ras-CVLS processing in transfected COS cells (immunoblot); conditions: Primates; inhibition of Ras-CVLS processing in Ras-transfected COS cells
Text: 2. Cell-Based Assay: Transient expression of val^12-Ha-Ras-CVLS and val^12-Ha-Ras-CVLL in COS monkey kidney cells: Effect of farnesyl protein transferase inhibitors on Ras processing and on disordered cell growth induced by transforming Ras.
COS monkey kidney cells were transfected by electroporation with the plasmid pSV-SPORT (Gibco/BRL) containing a cDNA insert encoding either Ras-CVLS or Ras-CVLL, leading to transient overexpression of a Ras substrate for either farnesyl protein transferase or geranylgeranyl protein transferase I, respectively (see above).
Following electroporation, cells were plated into 6-well tissue culture dishes containing 1.5 ml of Dulbecco's-modified Eagle's media (GIBCO, Inc.) supplemented with 10% fetal calf serum and the appropriate farnesyl protein transferase inhibitors. After 24 hours, media was removed and fresh media containing the appropriate drugs was re-added.
48 hours after electroporation cells were examined under the microscope to monitor disordered cell growth induced by transforming Ras. Cells expressing transforming Ras become more rounded and refractile and overgrow the monolayer, reminiscent of the transformed phenotype. Cells were then photographed, washed twice with 1 ml of cold phosphate-buffered saline (PBS) and removed from the dish by scraping with a rubber policeman into 1 ml of a buffer containing 25 mM Tris, pH 8.0; 1 mM ethylenediamine tetraacetic acid; 1 mM phenylmethylsulfonyl fluoride; 50 μM leupeptin; and 0.1 μM pepstatin. Cells were lysed by homogenization and cell debris was removed by centrifugation at 2000×g for 10 min.
Cellular protein was precipitated by addition of ice-cold trichloroacetic acid and redissolved in 100 μl of SDS-electrophoresis sample buffer. Samples (5-10 μl) were loaded onto 14% polyacrylamide minigels (Novex, Inc.) and electrophoresed until the tracking dye neared the bottom of the gel. Proteins resolved on the gels were electroblotted onto nitrocellulose membranes for immunodetection.
Membranes were blocked by incubation overnight at 4° C. in PBS containing 2.5% dried milk and 0.5% Tween-20 and then incubated with a Ras-specific monoclonal antibody, Y13-259 (Furth, M. E., et al., (1982), Monoclonal antibodies to the p21 products of the transforming gene of Harvey murine sarcome virus and of the cellular ras gene family, J. Virol. 43: 294-304), in PBS containing 1% fetal calf serum for one hour at room temperature. After washing, membranes were incubated for one hour at room temperature with a 1:5000 dilution of secondary antibody, rabbit anti-rat IgG conjugated to horseradish peroxidase, in PBS containing 1% fetal calf serum. The presence of processed and unprocessed Ras-CVLS or Ras-CVLL was detected using a calorimetric peroxidase reagent (4-chloro-1-naphthol) as described by the manufacturer (Bio-Rad).

[4] = system: Normal human HEPM fibroblasts; test: Cell Mat assay: inhibition of normal cell growth; assay type: cell-based; conditions: Homo sapiens, Fibroblast, mIC50, normal cell monolayer
Procedure: as §1

[5] = target: T2, geranylgeranyl protein transferase (GGPT) I (Rattus norvegicus, UniProt P53610+Q04631); test: In vitro enzyme assay: inhibition of geranylgeranyl protein transferase I; assay type: biochemical
T2 construct: were partially purified from rat brain by ammonium sulfate fractionation followed by Q-Sepharose; from tissue; host or cells: rat brain
Text: as §2
Both farnesyl protein transferase (FPT) and geranylgeranyl protein transferase (GGPT) I were partially purified from rat brain by ammonium sulfate fractionation followed by Q-Sepharose (Pharmacia, Inc.) anion exchange chromatography essentially as described by Yokoyama et al (Yokoyama, K., et al., (1991). A protein geranylgeranyltransferase from bovine brain: Implications for protein prenylation specificity, Proc. Natl. Acad. Sci USA 88: 5302-5306, the disclosure of which is incorporated herein by reference thereto). Human farnesyl protein transferase was also expressed in E. coli, using cDNA clones encoding both the α and β subunits. The methods used were similar to those published (Omer, C. et al., (1993), Characterization of recombinant human farnesyl protein transferase: Cloning, expression, farnesyl diphosphate binding, and functional homology with yeast prenyl-protein transferase, Biochemistry 32:5167-5176). Human farnesyl protein transferase was partially-purified from the soluble protein fraction of E. coli as described above. the tricyclic farnesyl protein transferase inhibitors disclosed herein inhibited both human and rat enzyme with similar potencies. Two forms of val^12-Ha-Ras protein were prepared as substrates for these enzymes, differing in their carboxy terminal sequence. One form terminated in cysteine-valine-leucine-serine (Ras-CVLS) the other in cystein-valine-leucine-leucine (Ras-CVLL). Ras-CVLS is a substrate for the farnesyl protein transferase while Ras-CVLL is a substrate for geranylgeranyl protein transferase I. The cDNAs encoding these proteins were constructed so that the proteins contain an amino-terminal extension of 6 histidine residues. Both proteins were expressed in Escherichia coli and purified using metal chelate affinity chromatography. The radiolabelled isoprenyl pyrophosphate substrates, [^3H]farnesyl pyrophosphate and [^3H]geranylgeranyl pyrophosphate, were purchased from DuPont/New England Nuclear.
The geranylgeranyl protein transferase I assay was essentially identical to the farnesyl protein transferase assay described above, with two exceptions: [^3H]geranylgeranylpyrophosphate replaced farnesyl pyrophosphate as the isoprenoid donor and Ras-CVLL was the protein acceptor. This is similar to the assay reported by Casey et al (Casey, P. J., et al., (1991), Enzymatic modification of proteins with a geranylgeranyl isoprenoid, Proc. Natl. Acad. Sci, USA 88: 8631-8635, the disclosure of which is incorporated herein by reference thereto).

[6] = Ras-CVLS farnesylation, partially purified rat brain FPT, read-out: FPT IC50

| IC50 ([1]; Homo sapiens) | IC50 [2, 6] | SMILES | IC50 [3] | IC50 [4] | further results |
| --- | --- | --- | --- | --- | --- |
| 18 µM | 7.2 µM | CCOC(=O)N1CCN(C2c3ccc(Cl)cc3CCc3cccnc32)CC1 (stereo not shown) [Compound 550.00, Ethyl 4-(8-chloro-6,11-dihydro-11H-benzo[5,6]cyclohepta[1,2-b]pyridin-11-yl)-1-piperazinecarboxylate] | > 20 µM | > 50 µM | IC50 [1]: 25 µM |
| 37 µM | 4.4 µM | CC(C)COC(=O)N1CCC(=C2c3ccc(Cl)cc3CCc3cccnc32)CC1 [Compound 575.00] | 9.9 µM | > 50 µM | – |
| > 50 µM | 1.22 µM | CCOC(=O)N1CCC(C2c3ccc(Cl)cc3CCc3cccnc32)CC1 (stereo not shown) [Compound 618.00] | 20.5 µM | > 50 µM | selective antiproliferative activity against Ras-transformed cells versus normal cells [1]: little; IC50 ([5]; Ras-CVLL as acceptor, read-out: GGPT IC 50): > 50 µM |

The next lines start with the compound.

| SMILES | IC50 ([1]; Homo sapiens) | IC50 [2, 6] | IC50 [3] | IC50 [4] | further results |
| --- | --- | --- | --- | --- | --- |
| CCOC(=O)N1CCC(C2c3ccc(Cl)cc3C=Cc3ccc[n+]([O-])c32)CC1 (stereo not shown) | – | – | – | – | melting point: 78.6 to 89.4 °C |
| O=C(Oc1cccnc1)N1CCC(C2c3ccc(Cl)cc3C=Cc3cccnc32)CC1 (stereo not shown) | – | – | – | – | melting point: 102.1 to 103.9 °C |
| CCSC(=O)N1CCC(=C2c3ccc(Cl)cc3CCc3cccnc32)CC1 [Compound 500.00] | 25 µM | 1.6 µM | 22 µM | 25 µM | selective antiproliferative activity against Ras-transformed cells versus normal cells [1]: no; selective for FPT inhibition (versus GGPT) ([5]; FPT versus GGPT): at least 31 fold; inhibition at 50 µM ([5]; at 50 μM): 7% |
| O=C(Oc1ccccc1)N1CCC(=C2c3ccc(Cl)cc3CCc3cccnc32)CC1 [Compound 565.00] | – | 0.84 µM | 6.7 µM | – | – |
| O=C(Sc1ccccc1)N1CCC(=C2c3ccc(Cl)cc3CCc3cccnc32)CC1 [Compound 595.00, 4-(8-chloro-5,6-dihydro-11H-benzo[5,6]cyclohepta[1,2-b]-pyridin-11ylidene)-1-piperinecarbothioic Acid, S-phenyl Ester] | 18 µM | – | 5.1 µM | > 50 µM | melting point: 175 to 177 °C |
| O=C(Oc1cccnc1)N1CCN([C@@H]2c3ccc(Cl)cc3CCc3cccnc32)CC1 [Compound 600.00, (+) 3-pyridyl 4-(8-chloro-6,11-dihydro-5H-benzo[5,6]-cyclohepta[1,2-b]pyridin-11(R)-yl)-1-piperazine Carboxylate] | 12.5 µM | – | 6.9 µM | 50 µM | IC50 [2]: 1.28 µM |
| O=C(Oc1cccnc1)N1CCN([C@H]2c3ccc(Cl)cc3CCc3cccnc32)CC1 [Compound 608.00, (−) 3-pyridyl 4-(8-chloro-6,11-dihydro-5H-benzo[5,6]-cyclohepta[1,2-b]pyridin-11(S)-yl)-1-piperazinecarboxylate] | 37 µM | – | 3.9 µM | > 50 µM | IC50 [2]: 0.82 µM |
| O=C(Oc1cccnc1)N1CCN(C2c3ccc(Cl)cc3CCc3cccnc32)CC1 (stereo not shown) [Compound 610.00, 3-pyridyl 4-(8-chloro-6,11-dihydro-5H-benzo[5,6]-cyclohepta[1,2-b]pyridin-11-yl)-1-piperazinecarboxylate] | – | – | 3 µM | – | IC50 [2]: 0.5 µM |
| O=C(Oc1ccccc1)N1CCN(C2c3ccc(Cl)cc3CCc3cccnc32)CC1 (stereo not shown) [Compound 612.00] | 50 µM | – | 4.8 µM | > 50 µM | selective antiproliferative activity against Ras-transformed cells versus normal cells [1]: little; IC50 [2]: 0.8 µM |
| CCOC(=O)N1CCC(=C2c3ccc(Cl)cc3CCc3c(On4nnc5ccccc54)ccnc32)CC1 [Compound 654.00, Ethyl 4-[4-[(1H-benzotriazol-1-yl)oxy]-8-chloro-5,6-dihydro-11H-benzo[5,6]cyclohepta[1,2-b]pyridin-11-ylidene]-1-piperidine Carbamate] | – | 11.6 µM | – | – | melting point: 181.5 to 183.9 °C |
| CN1CCC(OC(=O)N2CCN(C3c4ccc(Cl)cc4CCc4cc(Br)cnc43)CC2)CC1 (stereo not shown) [Compound 803.00] | – | 0.31 µM | > 5 µM | – | – |
